Converted amounts (≈) assume the structure as drawn. Each block holds one compound with its values, some of them ahead of it.
How the values were obtained:
[1] = Unbound intrinsic clearance in rat liver microsomes; type: ADME, Microsome
[2] = target: T1, Cystic fibrosis transmembrane conductance regulator (Homo sapiens, UniProt P13569, F508DEL); experiment: Potentiation of CFTR F508del mutant (unknown origin) expressed in human CFBE41o- cells co-expressing YFP incubated for 10 mins by halide potentiator assay; type: cell-based
[3] = Permeability of compound across apical to basolateral membrane in MDCK cells; type: ADME, cell-based, Canis lupus familiaris; details: dog, read-out: permeability
[4] = Permeability efflux ratio in MDCK cells; type: ADME, cell-based, Canis lupus familiaris; details: dog
[5] = Unbound intrinsic clearance in rat hepatocytes; type: ADME, cell-based, Hepatocyte
[6] = AUC in rat at 5 mg/kg, po; type: ADME, organism-based; parameters: dose 5 mg/kg; details: in vivo
[7] = Clearance in Sprague-Dawley rat at 1 mg/kg, iv; type: ADME, organism-based; details: in vivo
[8] = Unbound clearance in Sprague-Dawley rat at 1 mg/kg, iv; type: ADME, organism-based; details: in vivo
[9] = Volume of distribution at steady state in Sprague-Dawley rat at 1 mg/kg, iv; type: ADME, organism-based; details: in vivo, read-out: Vdss
[10] = Half life in Sprague-Dawley rat at 1 mg/kg, iv; type: ADME, organism-based; details: in vivo
[11] = Unbound intrinsic clearance in human liver microsomes; type: ADME, Microsome
[12] = Inhibition of CYP450 (unknown origin); type: ADME; details: human
[13] = Kinetic aqueous solubility of the compound at pH 7.4; type: physicochemical; details: buffer, read-out: Kinetic_solubility
[14] = target: T2, Nuclear receptor subfamily 1 group I member 2 (Homo sapiens, UniProt O75469); experiment: Activation of PXR (unknown origin) at 10 uM by CYP450 induction assay relative to rifampicin; type: ADME
T2 sequence (O75469 whole entry): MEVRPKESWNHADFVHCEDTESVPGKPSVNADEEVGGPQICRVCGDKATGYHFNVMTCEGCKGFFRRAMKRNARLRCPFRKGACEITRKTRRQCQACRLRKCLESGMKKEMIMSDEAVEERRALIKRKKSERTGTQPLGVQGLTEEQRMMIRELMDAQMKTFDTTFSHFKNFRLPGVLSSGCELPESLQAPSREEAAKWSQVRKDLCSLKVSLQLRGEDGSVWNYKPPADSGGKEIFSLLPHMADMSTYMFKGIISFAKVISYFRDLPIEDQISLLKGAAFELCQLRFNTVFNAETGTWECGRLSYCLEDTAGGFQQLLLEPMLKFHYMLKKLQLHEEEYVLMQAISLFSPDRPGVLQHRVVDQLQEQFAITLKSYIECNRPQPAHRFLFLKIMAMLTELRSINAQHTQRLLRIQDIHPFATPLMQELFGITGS

[15] = target: T1, Cystic fibrosis transmembrane conductance regulator; experiment: Potentiation of CFTR F508del mutant in human HBE cells by trans-epithelial clamp circuit assay; type: cell-based, Primary bronchial epithelial cell
[16] = Thermodynamic solubility of the compound in the FASSIF medium; type: physicochemical; details: read-out: Therm_solubility
[17] = Unbound intrinsic clearance in dog liver microsomes; type: ADME, Canis lupus familiaris, Microsome
[18] = Unbound intrinsic clearance in monkey liver microsomes; type: ADME, Macaca mulatta, Microsome; details: rhesus monkey
Cytochrome P450 1A2 = target: T3, Cytochrome P450 1A2 (Homo sapiens, UniProt P05177); experiment: Inhibition of CYP1A2 (unknown origin); type: ADME
T3 sequence (P05177 whole entry): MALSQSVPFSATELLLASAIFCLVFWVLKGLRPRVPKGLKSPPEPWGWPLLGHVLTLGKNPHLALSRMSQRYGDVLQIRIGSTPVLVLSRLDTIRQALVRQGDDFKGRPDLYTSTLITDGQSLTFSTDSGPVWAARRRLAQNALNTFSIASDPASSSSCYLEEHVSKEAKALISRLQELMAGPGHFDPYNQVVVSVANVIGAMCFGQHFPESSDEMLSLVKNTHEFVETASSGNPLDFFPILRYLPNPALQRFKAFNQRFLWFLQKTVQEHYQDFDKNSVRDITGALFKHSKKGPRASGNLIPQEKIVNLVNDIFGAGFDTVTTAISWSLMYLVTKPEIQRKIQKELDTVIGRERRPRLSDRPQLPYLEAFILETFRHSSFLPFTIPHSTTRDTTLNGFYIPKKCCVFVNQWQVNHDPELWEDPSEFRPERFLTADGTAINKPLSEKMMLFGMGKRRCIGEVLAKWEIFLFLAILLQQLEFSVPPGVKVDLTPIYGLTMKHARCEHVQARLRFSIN

Cytochrome P450 2C19 = Cytochrome P450 2C19 (Homo sapiens, UniProt P33261); experiment: Inhibition of CYP2C19 (unknown origin); type: ADME
Cytochrome P450 2C9 = Cytochrome P450 2C9 (Homo sapiens, UniProt P11712); experiment: Inhibition of CYP2C9 (unknown origin); type: ADME
Cytochrome P450 2D6 = Cytochrome P450 2D6 (Homo sapiens, UniProt P10635); experiment: Inhibition of CYP2D6 (unknown origin); type: ADME
Cytochrome P450 3A4 = Cytochrome P450 3A4 (Homo sapiens, UniProt P08684); experiment: Inhibition of CYP3A4 (unknown origin); type: ADME
[19] = target: Voltage-gated inwardly rectifying potassium channel KCNH2 (Homo sapiens, UniProt Q12809); experiment: Inhibition of human ERG by manual patch clamp assay
[20] = Clearance in Beagle dog at 1 mg/kg, iv; type: ADME, organism-based, Canis lupus familiaris; details: in vivo
[21] = Clearance in Cynomolgus monkey at 1 mg/kg, iv; type: ADME, organism-based, Macaca fascicularis; details: in vivo
[22] = Unbound clearance in Beagle dog at 1 mg/kg, iv; type: ADME, organism-based, Canis lupus familiaris; details: in vivo
[23] = Unbound clearance in Cynomolgus monkey at 1 mg/kg, iv; type: ADME, organism-based, Macaca fascicularis; details: in vivo
[24] = Volume of distribution at steady state in Beagle dog at 1 mg/kg, iv; type: ADME, organism-based, Canis lupus familiaris; details: in vivo, read-out: Vdss
[25] = Volume of distribution at steady state in Cynomolgus monkey at 1 mg/kg, iv; type: ADME, organism-based, Macaca fascicularis; details: in vivo, read-out: Vdss
[26] = Half life in Beagle dog at 1 mg/kg, iv; type: ADME, organism-based, Canis lupus familiaris; details: in vivo
[27] = Half life in Cynomolgus monkey at 1 mg/kg, iv; type: ADME, organism-based, Macaca fascicularis; details: in vivo
[28] = Oral bioavailability in Beagle dog at 1 mg/kg; type: ADME, organism-based, Canis lupus familiaris; details: in vivo
[29] = Oral bioavailability Cynomolgus monkey at 1 mg/kg, […]; type: ADME, organism-based, Macaca fascicularis; details: in vivo
[30] = Toxicity in human assessed as drug tolerability during phase I study
[31] = system: Cystic fibrosis transmembrane conductance regulator (Homo sapiens), P13569 [G551D]; experiment: Potentiation of CFTR G551D mutant (unknown origin) expressed in human HEK293 cells co-expressing YFP incubated for 10 mins by halide potentiator assay relative to control; type: cell-based; details: filed as activator
[32] = target: Cystic fibrosis transmembrane conductance regulator (Homo sapiens, UniProt P13569, G551D); experiment: Potentiation of CFTR G551D mutant (unknown origin) expressed in human HEK293 cells co-expressing YFP incubated for 10 mins by halide potentiator assay; type: cell-based
[33] = Oral bioavailability in rat at 5 mg/kg; type: ADME, organism-based; details: in vivo
[34] = Clearance in rat at 1 mg/kg, iv relative to hepatic blood flow; type: ADME, organism-based; details: in vivo

T1 sequence (P13569 as listed by the source): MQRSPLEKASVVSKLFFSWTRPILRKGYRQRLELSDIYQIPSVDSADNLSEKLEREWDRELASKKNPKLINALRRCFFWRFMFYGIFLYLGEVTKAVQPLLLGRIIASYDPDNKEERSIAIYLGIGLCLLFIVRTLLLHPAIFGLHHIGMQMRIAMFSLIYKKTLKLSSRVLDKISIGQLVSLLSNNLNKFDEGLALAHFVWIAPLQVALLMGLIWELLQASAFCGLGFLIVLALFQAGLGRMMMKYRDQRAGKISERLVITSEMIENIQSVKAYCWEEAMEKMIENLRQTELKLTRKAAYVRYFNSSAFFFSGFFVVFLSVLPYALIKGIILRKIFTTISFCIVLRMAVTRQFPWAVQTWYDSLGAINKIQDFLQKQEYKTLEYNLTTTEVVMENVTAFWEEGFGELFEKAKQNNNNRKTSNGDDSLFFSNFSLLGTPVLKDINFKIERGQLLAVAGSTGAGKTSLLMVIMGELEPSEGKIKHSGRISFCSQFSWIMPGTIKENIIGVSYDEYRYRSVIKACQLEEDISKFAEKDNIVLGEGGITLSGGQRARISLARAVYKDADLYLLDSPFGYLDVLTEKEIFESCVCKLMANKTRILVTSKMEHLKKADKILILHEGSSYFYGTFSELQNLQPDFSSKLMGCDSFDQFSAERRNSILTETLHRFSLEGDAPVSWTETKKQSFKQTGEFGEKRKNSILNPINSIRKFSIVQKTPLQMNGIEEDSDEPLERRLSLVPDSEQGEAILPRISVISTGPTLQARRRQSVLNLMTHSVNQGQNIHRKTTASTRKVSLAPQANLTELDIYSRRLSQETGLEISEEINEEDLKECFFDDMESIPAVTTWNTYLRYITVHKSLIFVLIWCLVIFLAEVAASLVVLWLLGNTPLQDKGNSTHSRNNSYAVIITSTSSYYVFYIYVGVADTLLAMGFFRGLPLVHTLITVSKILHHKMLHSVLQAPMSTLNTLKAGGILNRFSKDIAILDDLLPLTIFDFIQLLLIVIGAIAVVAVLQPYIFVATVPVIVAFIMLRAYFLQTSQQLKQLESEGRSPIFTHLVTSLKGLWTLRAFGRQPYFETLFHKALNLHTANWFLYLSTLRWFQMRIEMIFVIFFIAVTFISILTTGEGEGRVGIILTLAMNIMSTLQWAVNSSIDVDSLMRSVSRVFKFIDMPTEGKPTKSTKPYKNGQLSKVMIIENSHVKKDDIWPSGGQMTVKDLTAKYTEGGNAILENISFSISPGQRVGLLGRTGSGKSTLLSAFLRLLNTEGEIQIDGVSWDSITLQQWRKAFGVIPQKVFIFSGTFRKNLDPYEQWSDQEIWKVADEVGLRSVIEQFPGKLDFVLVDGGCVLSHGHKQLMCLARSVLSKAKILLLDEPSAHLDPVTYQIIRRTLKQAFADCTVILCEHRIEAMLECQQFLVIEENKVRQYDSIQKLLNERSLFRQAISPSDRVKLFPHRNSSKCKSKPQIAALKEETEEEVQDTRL
Chain of Cystic fibrosis transmembrane conductance regulator (Homo sapiens), P13569 [G551D] (P13569 whole entry G551D): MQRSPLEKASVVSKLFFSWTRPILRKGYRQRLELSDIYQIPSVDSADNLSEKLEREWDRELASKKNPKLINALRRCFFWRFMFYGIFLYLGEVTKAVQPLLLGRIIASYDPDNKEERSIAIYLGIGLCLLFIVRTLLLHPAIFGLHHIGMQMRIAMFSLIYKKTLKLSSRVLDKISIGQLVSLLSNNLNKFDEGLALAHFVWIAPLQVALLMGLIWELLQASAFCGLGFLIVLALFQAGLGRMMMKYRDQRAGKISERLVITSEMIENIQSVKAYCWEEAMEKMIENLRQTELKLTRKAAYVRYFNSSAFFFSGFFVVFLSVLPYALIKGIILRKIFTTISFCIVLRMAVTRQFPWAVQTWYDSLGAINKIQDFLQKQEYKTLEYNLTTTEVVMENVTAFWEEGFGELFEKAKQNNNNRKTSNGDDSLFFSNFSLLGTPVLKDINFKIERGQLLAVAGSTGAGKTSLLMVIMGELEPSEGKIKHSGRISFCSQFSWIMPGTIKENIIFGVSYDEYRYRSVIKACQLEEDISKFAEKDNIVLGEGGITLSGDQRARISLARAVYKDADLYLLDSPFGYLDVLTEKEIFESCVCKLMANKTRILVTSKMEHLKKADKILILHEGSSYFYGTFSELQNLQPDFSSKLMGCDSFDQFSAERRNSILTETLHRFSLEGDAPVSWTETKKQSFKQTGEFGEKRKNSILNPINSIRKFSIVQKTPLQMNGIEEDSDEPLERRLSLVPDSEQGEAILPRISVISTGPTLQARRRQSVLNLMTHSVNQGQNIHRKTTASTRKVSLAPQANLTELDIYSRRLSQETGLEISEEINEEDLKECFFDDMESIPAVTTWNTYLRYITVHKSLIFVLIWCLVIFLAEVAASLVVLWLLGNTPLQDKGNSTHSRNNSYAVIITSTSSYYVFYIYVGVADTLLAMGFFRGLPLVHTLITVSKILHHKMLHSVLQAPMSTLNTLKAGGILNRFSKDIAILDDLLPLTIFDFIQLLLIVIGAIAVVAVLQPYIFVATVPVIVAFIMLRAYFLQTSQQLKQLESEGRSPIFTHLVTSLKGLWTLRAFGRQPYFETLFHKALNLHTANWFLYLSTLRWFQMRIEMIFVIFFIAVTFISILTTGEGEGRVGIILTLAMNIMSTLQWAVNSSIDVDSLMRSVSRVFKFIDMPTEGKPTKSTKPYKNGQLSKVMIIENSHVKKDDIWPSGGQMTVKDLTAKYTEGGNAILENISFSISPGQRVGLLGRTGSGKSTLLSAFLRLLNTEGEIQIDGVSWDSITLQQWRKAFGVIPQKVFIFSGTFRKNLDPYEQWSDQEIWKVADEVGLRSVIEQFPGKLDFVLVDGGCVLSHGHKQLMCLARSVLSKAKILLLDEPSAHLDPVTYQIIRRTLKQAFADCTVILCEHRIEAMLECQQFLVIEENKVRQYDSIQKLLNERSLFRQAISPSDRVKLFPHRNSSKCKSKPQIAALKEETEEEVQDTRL
Chain of Voltage-gated inwardly rectifying potassium channel KCNH2 (Q12809 whole entry): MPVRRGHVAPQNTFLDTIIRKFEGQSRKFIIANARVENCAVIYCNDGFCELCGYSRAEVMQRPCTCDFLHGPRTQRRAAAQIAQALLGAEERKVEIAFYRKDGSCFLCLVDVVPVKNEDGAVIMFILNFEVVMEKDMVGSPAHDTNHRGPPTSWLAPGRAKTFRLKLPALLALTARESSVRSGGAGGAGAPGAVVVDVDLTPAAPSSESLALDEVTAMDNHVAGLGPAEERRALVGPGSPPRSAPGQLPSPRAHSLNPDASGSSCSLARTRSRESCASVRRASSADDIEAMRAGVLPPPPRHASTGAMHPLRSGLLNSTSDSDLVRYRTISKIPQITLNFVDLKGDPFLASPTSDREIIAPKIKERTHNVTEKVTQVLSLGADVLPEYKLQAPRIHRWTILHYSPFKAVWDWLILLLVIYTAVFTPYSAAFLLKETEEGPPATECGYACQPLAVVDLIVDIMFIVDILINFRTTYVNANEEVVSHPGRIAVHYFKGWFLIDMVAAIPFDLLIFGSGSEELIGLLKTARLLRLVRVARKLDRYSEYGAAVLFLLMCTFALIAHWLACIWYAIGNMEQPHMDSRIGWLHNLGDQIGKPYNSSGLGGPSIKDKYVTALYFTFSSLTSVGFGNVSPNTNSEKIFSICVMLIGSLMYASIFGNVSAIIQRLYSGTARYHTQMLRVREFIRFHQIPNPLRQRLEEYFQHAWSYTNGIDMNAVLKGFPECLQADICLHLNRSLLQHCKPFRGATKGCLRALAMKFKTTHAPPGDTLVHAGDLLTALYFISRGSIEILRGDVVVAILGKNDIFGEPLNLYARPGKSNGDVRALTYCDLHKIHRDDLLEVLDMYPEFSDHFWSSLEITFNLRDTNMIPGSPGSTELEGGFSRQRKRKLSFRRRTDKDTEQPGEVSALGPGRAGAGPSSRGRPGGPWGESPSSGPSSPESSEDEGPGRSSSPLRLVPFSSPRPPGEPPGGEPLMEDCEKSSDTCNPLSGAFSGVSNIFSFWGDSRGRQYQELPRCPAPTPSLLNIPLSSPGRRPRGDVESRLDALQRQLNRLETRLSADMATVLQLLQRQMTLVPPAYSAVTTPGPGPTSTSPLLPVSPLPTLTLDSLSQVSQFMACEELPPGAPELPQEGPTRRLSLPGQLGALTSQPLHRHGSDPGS
Chain of Cytochrome P450 2C9 (P11712 whole entry): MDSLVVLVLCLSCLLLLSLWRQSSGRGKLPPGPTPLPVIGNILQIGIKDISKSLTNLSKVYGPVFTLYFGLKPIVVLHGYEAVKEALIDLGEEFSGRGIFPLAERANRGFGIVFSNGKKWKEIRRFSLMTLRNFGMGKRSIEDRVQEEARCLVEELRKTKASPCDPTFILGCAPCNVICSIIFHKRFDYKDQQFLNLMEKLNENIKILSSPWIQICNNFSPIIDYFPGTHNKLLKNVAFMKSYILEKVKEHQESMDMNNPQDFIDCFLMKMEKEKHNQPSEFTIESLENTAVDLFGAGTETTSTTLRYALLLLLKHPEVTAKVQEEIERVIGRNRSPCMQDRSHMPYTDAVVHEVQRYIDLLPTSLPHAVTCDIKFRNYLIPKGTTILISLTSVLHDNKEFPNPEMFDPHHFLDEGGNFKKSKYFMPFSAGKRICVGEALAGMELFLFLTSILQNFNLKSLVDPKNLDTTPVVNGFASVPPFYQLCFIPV
Chain of Cystic fibrosis transmembrane conductance regulator (Homo sapiens, UniProt P13569, G551D) (P13569 whole entry G551D): as the sequence (P13569 whole entry G551D) above

SMILES: CC(C)(O)C(=O)Nc1sc(S(=O)(=O)c2ccc(F)cc2)cc1C(N)=O
CL free [1]: 30 mL/min/kg
EC50 [2]: 26 nM
Papp A→B [3]: 4 ×10⁻⁶ cm/s
efflux ratio [4]: 5
CL free [5]: 46.7 mL/min/kg
AUC [6]: 5600 ng·h/mL

SMILES: NC(=O)c1cc(S(=O)(=O)c2ccc(F)cc2)sc1NC(=O)c1ccn[nH]1
CL free [1]: 71.7 mL/min/kg
EC50 [2]: 29 nM
Papp A→B [3]: 0.9 ×10⁻⁶ cm/s
efflux ratio [4]: 37

SMILES: COc1ccc(S(=O)(=O)c2cc(C(N)=O)c(NC(=O)C(C)(C)O)s2)cc1
CL free [1]: 33 mL/min/kg
EC50 [2]: 20 nM
Activity [31]: 85%
AUC [6]: 12400 ng·h/mL
EC50 [32]: 478 nM
bioavailability [33]: 46%
clearance [7]: 2.05 mL/min/kg
CL free [8]: 167 mL/min/kg
Vd [9]: 2.7 L/kg
half-life [10]: 15.5 h
CLH [34]: < 3%
CL free [11]: 10 mL/min/kg

SMILES: CC(C)(C)c1cc(C(C)(C)C)c(NC(=O)c2c[nH]c3ccccc3c2=O)cc1O
Activity [31]: 53%

The next lines start with results.

CL free [1]: 120 mL/min/kg
EC50 [2]: < 0.31 nM
clearance [7]: 9.83 mL/min/kg
CL free [8]: 258 mL/min/kg
Vd [9]: 5.1 L/kg
half-life [10]: 6.7 h
CL free [11]: 45 mL/min/kg
inhibition (INH) [12]: Not Active
solubility kinetic [13]: 75 µM (≈ 35.5 µg/mL)
Activity [14]: 80%
SMILES: Nc1cc(S(=O)(=O)c2ccccc2OC(F)(F)F)cnc1C(=O)NC[C@@H](O)C(F)(F)F

CL free [1]: 41.7 mL/min/kg
EC50 [2]: 11 nM
clearance [7]: 1.33 mL/min/kg
CL free [8]: 45 mL/min/kg
Vd [9]: 1.1 L/kg
half-life [10]: 8.9 h
CL free [11]: 20 mL/min/kg
solubility kinetic [13]: 37 µM (≈ 15.5 µg/mL)
Activity [14]: 12%
EC50 [15]: 18 nM
solubility thermodynamic [16]: 83 µM (≈ 34.8 µg/mL)
CL free [17]: 28.3 mL/min/kg
CL free [18]: 18.3 mL/min/kg
EC50 (Cytochrome P450 1A2): > 100000 nM
EC50 (Cytochrome P450 2C19): > 33000 nM
EC50 (Cytochrome P450 2C9): 26000 nM
EC50 (Cytochrome P450 2D6): > 100000 nM
EC50 (Cytochrome P450 3A4): > 100000 nM
clearance [20]: 2.33 mL/min/kg
clearance [21]: 0.667 mL/min/kg
CL free [22]: 33 mL/min/kg
CL free [23]: 21.7 mL/min/kg
Vd [24]: 2.7 L/kg
Vd [25]: 0.8 L/kg
half-life [26]: 15 h
half-life [27]: 16 h
bioavailability [28]: 93%
F [29]: 100%
SMILES: C[C@H](O)CNC(=O)c1ncc(S(=O)(=O)c2ccc(OC(F)(F)F)cc2)cc1N
EC50 [19]: > 30000 nM
Activity [30]: Non-Toxic

CL free [1]: 58.3 mL/min/kg
EC50 [2]: 3.4 nM
clearance [7]: 1.33 mL/min/kg
CL free [8]: 86.7 mL/min/kg
Vd [9]: 6 L/kg
half-life [10]: > 50 h
CL free [11]: 36.7 mL/min/kg
inhibition (INH) [12]: Not Active
solubility kinetic [13]: < 19 µM
Activity [14]: 10%
SMILES: Nc1cc(S(=O)(=O)c2ccc(OC(F)(F)F)cc2)cnc1C(=O)NC[C@@H](O)C(F)(F)F

CL free [1]: 26.7 mL/min/kg
EC50 [2]: 7.8 nM
clearance [7]: 2.17 mL/min/kg
CL free [8]: 26.8 mL/min/kg
Vd [9]: 2.9 L/kg
half-life [10]: > 15 h
CL free [11]: 17 mL/min/kg
SMILES: Nc1cc(S(=O)(=O)c2ccc(F)cc2)cnc1C(=O)NC[C@@H](O)C(F)(F)F

EC50 [2]: > 2000 nM
SMILES: Nc1cc(S(=O)(=O)c2ccc(C(F)(F)F)cc2)cnc1C(=O)N1CCC[C@H]1CO

From ChEMBL document CHEMBL4765492, “Discovery of GLPG2451, a Novel Once Daily Potentiator for the Treatment of Cystic Fibrosis” (J Med Chem, 2021)
